Data taken from patent publication US20260232594A1, “EXCIPIENT COMPOSITION FOR THE PREPARATION OF AMORPHOUS SOLID DISPERSONS/SOLUTIONS” (UNIVERSITÄTSKLINIKUM HAMBURG-EPPENDORF, priority 2023, published 2026).
Structures can show the parent of a compound that is named as a salt. Blank lines part the entries; values can stand above or below the molecule they belong to.

Columns and labels:
[1] = Particle size analysis by laser light diffraction; assay type: physicochemical; details: Fraunhofer method
Method: Laser diffraction measurements were performed with a LS 13 320 laser diffraction particle size analyzer equipped with a Tornado DPS module (Beckman Coulter Inc, Brea, CA, USA). Each API, excipient and the blend of batch P25/29-M were measured five times. Particle sizes were calculated using the Fraunhofer method.

[2] = Thermogravimetric analysis (TGA), thermal stability; assay type: physicochemical; details: for temperature at which mass loss / decomposition starts (thermogram): 40 to 300° C.
Method: TGA analyzes were carried out with a Discovery TGA (TA Instruments, Waters, LLC, U.S.A.) and data was collected and analyzed with TA Instruments Trios software and percent mass loss or onset temperature were calculated. Two different methods were utilized. Both APIs were subjected to a temperature ramp of 10° C./min starting at 40° C. and concluding at 300° C. in open aluminum pans. CD was additionally subjected to an isothermal stress test at 180° C. for 30 min.

[3] = Dissolution of printed tablets, Ph. Eur. 2.9.3, 0.1 M HCl, paddle 100 rpm, HPLC; assay type: physicochemical
Method: Dissolution experiments were carried out according to Ph. Eur. 10.6; 2.9.3 (EDQM, Ph. Eur.), with a Premiere 5100 Dissolution System (Distek Inc., North Brunswick Township, NJ, USA). […] The paddle speed was set to 100 rpm. Samples were taken after 5, 10, 15, 20, 30, 45, 60 and 90 min. A sinker was used for analyzes. For all small tablets and the large Oblongs a Distek “Japanese Basket” was used, whereas a custom 3D printed polylactic acid (PLA) sinker (not shown) was used for the large Cylinders and the large Donuts. If applicable, the dissolution profiles were compared using the f2 comparison (Moore and Flanner 1996).
The API content of the powder blend and the dissolution samples were analyzed and evaluated with a Nexera XR HPLC system and LabSolutions software version 6.83 (both Shimadzu Corp., Nakagyo-ku, Kyoto, Japan). The Nexera XR HPLC system consists of two degassing units (DGU-20A5R) and two HPLC-pumps (LC-20ADXR) as well as an autosampler (SIL-20ACXR) a column oven (FCV-34AH) and a communication bus module (CBM-20A). Samples were dissolved and diluted in 0.1 M HCl. Turbid samples were filtered through a 0.22 μm PTFE Filter. Prior to each analytical sequence, the column was equilibrated for 30 min and the autosampler purged for 5 min. HPLC samples were measured in duplicate with an injection volume of 20 μL. […]

[4] = assay type: physicochemical
Method: DSC analyzes were carried out with a DSC 1 device (Mettler-Toledo, LLC, Columbus, OH, USA) operated with STARe Software V16.10. Each single component of the formulation as well as the powder blend and the extruded filament (both P25/29-M) were analyzed. Three different methods were utilized. Nitrogen was used as a purging gas at a flow rate of 50 mL/min. Every sample was heated to 250° C. (10° C./min) and kept at this temperature for 5 min. CD, LD, mannitol and the powder blend were also heated (10° C./min) to and kept at 185° C. (10 min), then cooled to 25° C. (20° C./min) and kept at this temperature for 5 min and reheated to 185° C. (10° C./min) and kept at this temperature for 10 min. Ultimately, CD and the powder blend were also heated to 182° C. (10° C./min) and kept at this temperature for 30 min.

[5] = 3D printing of tablets by direct powder extrusion (DPE): printability and API tolerance; details: printing temperature 180° C.
From the text: The previously blended powders were 3D printed using a M3DIMAKER™ equipped with a DPE printhead coupled with a 0.4 mm nozzle (FabRx Ltd., London, United Kingdom). Computer-aided design (CAD) models of tablets were designed using Autodesk Tinkercad (Autodesk Inc., Mill Valley, CA, U.S.A.) and processed with Repetier-Host software (Hot-World GmbH & Co. KG, Willich, Germany). To enhance powder flow, the M3DIMAKER™ was modified with a stirring element 4 (see FIG. 1).
Tablets were printed using the following parameters: printing temperature: 180° C.; first layer height: 0.6 mm, layer height: 0.15-0.30 mm (adaptive slicing), infill: 60-100%, travel speed 70 mm/s, first layer speed 5 mm/s, perimeter speed 7.5-15 mm/s, infill speed: 15-20 mm/s with zero (Oblongs) or one (Cylinders and Donuts) top layer, two bottom layers and two shells.

[6] = Stability analysis: storage in constant climate chambers, API content by HPLC; assay type: physicochemical; details: in P25/29-M small Donuts
Method: Small Donuts of P25/29-M were packed in FDS/Proud packaging material Unit Dose Bags (UDB) using a FDS II Proud 336 device (Baxter International Inc., Deerfield, Il, USA) or brown glass stored in constant climate chambers (KBF P 240 and KBF S 240; Binder GmbH; Tuttlingen, Germany). […] Samples packed in UDB were stored for 7 days or 28 days in each of the previously mentioned conditions. Samples in brown glass were stored for 28 days in the 25° C./60% RH condition. After storage, the API contents of the samples were analyzed via HPLC as described in 2.2.6. Each sampling time comprised three samples.

[7] = Extrusion experiments with BZ in place of CD, extrudate analyzed via HPLC; assay type: physicochemical; details: extrusion 125-155° C.
Method: For LD and BZ analytics a separate HPLC method was developed for the same equipment. The mobile phase was a 95:5 mixture of aforementioned hydrogen phosphate buffer (pH 2.5) and methanol. LD was detected at 280 nm and BZ at 268 nm. Retention times were 3.41 min (BZ) and 4.41 min (LD). The calibration for LD was the same as in the above-named method and BZ was calibrated in the same range as CD.
Following the dissolution experiments and the subsequently adapted thermoanalyses to further investigate the thermolability of CD, extrusion experiments with BZ were conducted. For these experiments, the CD (P25/29-M) was substituted with BZ. The formulation was extruded between 125-155° C. and the extrudate analyzed via HPLC.

particle size d50 [1]: 345 μm
SMILES: OC[C@@H](O)[C@@H](O)[C@H](O)[C@H](O)CO [mannitol, Mannitol]

particle size d50 [1]: 15.3 μm
loss in mass over the first 10 min (isothermal TGA) ([2]; 180° C. isothermal): more than 20%
mass loss in the thermogram (release of hydrate water) ([2]; between ca. 90-140° C., ramp 10° C./min): about 8%
temperature at which mass loss / decomposition starts (thermogram) ([2]; ramp 10° C./min): about 195 °C
substance lost during extrusion ([3]; CD, much higher extrusion temperatures (printing 180° C.)): 30-40%
CD recovered from the completely dissolved tablets ([3]; after the printing process): 60-70%
time of exposition until decomposition begins (isothermal DSC) ([4]; 182° C. isothermal): 7 to 8 min
storage stability (in words) ([6]; brown glass, and 25/60, 7 in UDB): moderate stability
SMILES: C[C@@](Cc1ccc(O)c(O)c1)(NN)C(=O)O [CD, Carbidopa]
tolerance of the printing process (in words) [5]: degraded partially during the printing process

substance lost during extrusion [7]: More than 70%
SMILES: NC(CO)C(=O)NNCc1ccc(O)c(O)c1O (stereo not shown) [BZ, Benserazide-HCl]

particle size d50 [1]: 51.8 μm
temperature at which mass loss / decomposition starts (thermogram) ([2]; ramp 10° C./min): about 275 °C
temperature up to which no degradation was found (DSC and TGA) [4]: > 250 °C
SMILES: N[C@@H](Cc1ccc(O)c(O)c1)C(=O)O [LD, Levodopa]
tolerance of the printing process (in words) [5]: able to tolerate the printing temperature
storage time tolerated ([6]; both conditions (25/60, 40/75) and packagings): at least 28 days
